Experimental data as given in PubChem BioAssay AID1645865 (Buhrlage Lab, Dana-Farber Cancer Institute and Novartis …, 2021).
The source made the active and inactive calls.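 The calls were made as follows: active = maximal inhibition of the USP30 enzyme reaching 30% or more across the dose series; inactive = the rest.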

molecular target: Ubiquitin carboxyl-terminal hydrolase 30 (Homo sapiens) (UniProt Q70CQ3); assay: inhibitors of ubiquitin-specific protease 30 deubiquitylating enzyme, concentration dependence, in vitro biochemical, validation of primary hits (AID 1645865); details: purified USP30, Ub-rhodamine cleavage, fluorescence, 2 h
Sequence (Q70CQ3 whole entry, looked up): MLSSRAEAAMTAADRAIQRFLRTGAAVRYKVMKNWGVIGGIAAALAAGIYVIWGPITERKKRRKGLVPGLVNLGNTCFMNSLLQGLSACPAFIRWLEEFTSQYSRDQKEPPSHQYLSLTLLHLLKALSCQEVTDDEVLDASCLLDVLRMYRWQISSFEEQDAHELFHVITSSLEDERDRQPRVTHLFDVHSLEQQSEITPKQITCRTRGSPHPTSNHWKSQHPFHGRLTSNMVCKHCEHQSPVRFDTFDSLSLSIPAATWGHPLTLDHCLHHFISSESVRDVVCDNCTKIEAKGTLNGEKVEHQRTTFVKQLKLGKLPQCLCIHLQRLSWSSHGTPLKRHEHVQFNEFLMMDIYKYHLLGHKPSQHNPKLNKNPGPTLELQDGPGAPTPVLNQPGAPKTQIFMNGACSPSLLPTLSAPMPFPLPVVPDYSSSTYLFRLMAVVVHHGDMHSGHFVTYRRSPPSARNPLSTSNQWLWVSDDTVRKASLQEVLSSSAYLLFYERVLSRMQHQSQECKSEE

**Q.** With N#Cc1cccc(S(=O)(=O)N2CCc3nc4ccccc4n3CC2)c1 as the compound, how does the IC50 read?
**A.** The IC50 was 20.3 µM.

**Q.** With C/C=C\C1=CC(=O)[C@]23C[C@H]2[C@]2(C)CO[C@@]1(O)[C@@]3(O)O2 as the compound, how does the IC50 read?
**A.** The IC50 was > 50 µM (inactive).

**Q.** Which IC50 does the source give for Fc1ccc(Oc2nc(CN3CCOCC3)nc3sc4c(c23)CCCC4)c(Cl)c1 here?
**A.** The IC50 was > 50 µM (inactive).

**Q.** With Cc1csc2ncc(C(=O)N3CCN(c4ccccc4F)CC3)c(=O)n12 as the compound, how does the IC50 read?
**A.** Its IC50 is > 50 µM (inactive).

**Q.** Which IC50 does the source give for Cc1c(-c2ccccc2)oc2c(C(=O)OCC(=O)Nc3ccccc3F)cccc2c1=O here?
**A.** Its IC50 is > 50 µM (inactive).

**Q.** Which IC50 does the source give for COc1cccc(OCCCn2c(C(C)NC(=O)c3ccco3)nc3ccccc32)c1 (stereo not drawn) here?
**A.** The IC50 was 34.8 µM.

**Q.** For Cc1ccc2nc(CCc3ccc(NS(=O)(=O)c4cccc(Cl)c4C)cc3)[nH]c2c1, which IC50 is on record?
**A.** Its IC50 is 44.8 µM.

**Q.** For NS(=O)(=O)c1ccc(Cl)c(C(=O)OCc2csc(Nc3ccccc3)n2)c1, which IC50 is on record?
**A.** The IC50 was > 50 µM (inactive).

**Q.** With COc1ccc(C(C)NC(=O)c2cnc(-c3ccccc3)nc2-c2ccncc2)cc1 (stereo not drawn) as the compound, how does the IC50 read?
**A.** Its IC50 is > 50 µM (inactive).

**Q.** Which IC50 does the source give for Cc1ccc2c(c1)-c1c(c(C(=O)N3CCN(c4ccccc4)CC3)nn1C)CS2 here?
**A.** The IC50 was > 50 µM (inactive).

**Q.** With CC(=O)c1ccccc1NC(=O)COc1ccc(-c2ccc(C#N)cc2)cc1 as the compound, how does the IC50 read?
**A.** The IC50 was 2.51 µM.

**Q.** Which IC50 does the source give for Fc1cccc(Cn2cc(-c3noc(-c4cccnc4)n3)nn2)c1 here?
**A.** The IC50 was 26.4 µM.

**Q.** How did the IC50 turn out when Cc1ccc2[nH]c(=O)c(CN(Cc3cccnc3)C(=O)c3cccc(Cl)c3)cc2c1 was run?
**A.** The IC50 was > 50 µM (inactive).

**Q.** Which IC50 does the source give for O=[N+]([O-])c1ccc(NCc2ccc(-c3cccs3)s2)nc1 here?
**A.** Its IC50 is 39.1 µM.

**Q.** Which IC50 does the source give for O=C(CN1CCCc2ccccc21)Nc1ccc(N2CCOCC2)cc1 here?
**A.** Its IC50 is > 50 µM (inactive).

**Q.** How did the IC50 turn out when CS(=O)(=O)N1CCCN(c2nc3cc(Cl)ccc3n3cccc23)CC1 was run?
**A.** The IC50 was > 50 µM (inactive).

**Q.** How did the IC50 turn out when COCCCNC(=O)c1ccc(Cn2c(=O)c3ccccc3n(CC(=O)NC3CCCCC3)c2=O)cc1 was run?
**A.** The IC50 was 24.8 µM.

**Q.** Which IC50 does the source give for O=C(Nc1ccc(Cl)cc1F)c1cc(-c2ccccn2)n[nH]1 here?
**A.** Its IC50 is 0.445 µM.

**Q.** For NC(=O)c1ccc(NC(=O)Cc2cc(-c3ccc(Cl)cc3)on2)cc1, which IC50 is on record?
**A.** The IC50 was > 50 µM (inactive).

**Q.** O=C1c2ccccc2-n2c1nc1ccccc1c2=O was tested. Which IC50 did it give?
**A.** The IC50 was > 50 µM (inactive).

**Q.** COc1ccc2cc3c(nc2c1)OC(=O)N(CCc1cccc(F)c1)C3 was tested. Which IC50 did it give?
**A.** The IC50 was 0.0686 µM.

**Q.** COc1ccc(NC(=O)c2nnn(-c3ccccc3F)c2C)cc1OC was tested. Which IC50 did it give?
**A.** The IC50 was > 50 µM (inactive).

**Q.** Which IC50 does the source give for Cc1nc(N2CCCC2)ncc1C(=O)Nc1ccc(F)c(F)c1 here?
**A.** Its IC50 is 31.1 µM.

**Q.** CC(C)(C)n1nc(C2CC2)c(Br)c1NC(=O)c1ccccc1F was tested. Which IC50 did it give?
**A.** The IC50 was 34.1 µM.

**Q.** COc1c2n(c3ccccc13)[C@@]1(O)C(=O)N(C)C(=O)[C@@]1(O)c1c-2n(C)c2ccc(Cl)cc12 was tested. Which IC50 did it give?
**A.** The IC50 was > 50 µM (inactive).

**Q.** Which IC50 does the source give for N#Cc1ccc(COC(=O)c2ccc3ccccc3n2)cc1 here?
**A.** The IC50 was > 50 µM (inactive).

**Q.** With Cc1ccc(CNC(=O)c2cnc3ccccc3n2)cc1 as the compound, how does the IC50 read?
**A.** Its IC50 is > 50 µM (inactive).

**Q.** How did the IC50 turn out when Cc1ccc(Cc2nc(-c3ccc(=O)[nH]c3)no2)cc1 was run?
**A.** Its IC50 is > 50 µM (inactive).

**Q.** CCC(CC)n1[nH]c(=O)c2c1NC(=O)CSC2c1ccc2c(c1)OCO2 (stereo not drawn) was tested. Which IC50 did it give?
**A.** Its IC50 is 16.7 µM.

**Q.** With O=c1[nH]c2ccc(S(=O)(=O)Nc3ccc(O)c4ccccc34)cc2[nH]1 as the compound, how does the IC50 read?
**A.** The IC50 was > 50 µM (inactive).

**Q.** For CN(C)c1ccc(/C=N/NC(=O)c2ccc(Cl)cc2)cc1, which IC50 is on record?
**A.** Its IC50 is 10.7 µM.

**Q.** How did the IC50 turn out when Cc1ccccc1NC(=O)c1cc(S(=O)(=O)N2CCCCCC2)ccc1Cl was run?
**A.** The IC50 was 23.8 µM.

**Q.** Cc1nnc(-c2nnc(NCc3ccc(Cl)cc3)c3ccccc23)o1 was tested. Which IC50 did it give?
**A.** Its IC50 is > 50 µM (inactive).

**Q.** How did the IC50 turn out when Cc1ccccc1OCCC(=O)Nc1cccc(S(=O)(=O)Nc2ccccc2Cl)c1 was run?
**A.** Its IC50 is > 50 µM (inactive).

**Q.** With CC1=C(c2ccc(F)cc2)S(=O)(=O)N=C1Nc1ccc(Cl)cc1 as the compound, how does the IC50 read?
**A.** The IC50 was 32.3 µM.

**Q.** How did the IC50 turn out when CCOc1ccc(NC(=O)Cn2c(=O)n(CCC(=O)NCc3ccccc3OC)c(=O)c3ccccc32)cc1 was run?
**A.** Its IC50 is 3.39 µM.

**Q.** With O=C(COc1ccc(F)cc1)Nc1cc(F)c2nc(N3CCOCC3)ccc2c1 as the compound, how does the IC50 read?
**A.** The IC50 was > 50 µM (inactive).

**Q.** With CCCc1nc2sc3c(NCCc4ccc(OC)c(OC)c4)ncnc3c2c2c1CCC2 as the compound, how does the IC50 read?
**A.** The IC50 was > 50 µM (inactive).

**Q.** How did the IC50 turn out when NS(=O)(=O)c1ccc(NS(=O)(=O)c2ccc(NC(=O)Nc3ccc(Cl)cc3)cc2)cc1 was run?
**A.** Its IC50 is 29.4 µM.

**Q.** With COc1ccccc1CNC(=O)CCCCn1c(=O)c2ccccc2n(Cc2ccccc2C#N)c1=O as the compound, how does the IC50 read?
**A.** The IC50 was 15.1 µM.

**Q.** N#Cc1ccc(NC(=O)Nc2cccn(Cc3ccccc3F)c2=O)cc1 was tested. Which IC50 did it give?
**A.** The IC50 was 3.2 µM.

**Q.** For CC(C)(C)c1ccc(C(=O)Nc2ccc(Oc3cccnc3)nc2)cc1, which IC50 is on record?
**A.** Its IC50 is > 50 µM (inactive).

**Q.** With Cc1cc(O)c(Oc2cc(C)cc(O)c2O)c(O)c1 as the compound, how does the IC50 read?
**A.** The IC50 was 33.1 µM.

**Q.** How did the IC50 turn out when Cc1ccc(NC(=O)/C=C/c2cccc(C(F)(F)F)c2)c(O)c1 was run?
**A.** The IC50 was 5.24 µM.

**Q.** COc1cccc(/C=C/C(=O)Nc2ccc(N3CCOCC3)cc2)c1OC was tested. Which IC50 did it give?
**A.** Its IC50 is > 50 µM (inactive).

**Q.** For CCn1c(COc2cccc(C(F)(F)F)c2)nnc1SCc1ccc(Cl)cc1, which IC50 is on record?
**A.** The IC50 was 15.9 µM.

**Q.** CC(=O)c1cccc(NC(=O)c2ccc3[nH]c4c(c3c2)CC(C)CC4)c1 (stereo not drawn) was tested. Which IC50 did it give?
**A.** The IC50 was > 50 µM (inactive).

**Q.** How did the IC50 turn out when O=C(Cc1cc(-c2ccc(F)cc2)on1)NCc1ccccc1 was run?
**A.** Its IC50 is 18.3 µM.
